Values after ≈ are worked out from the molar mass of the structure shown. Like-named read-outs stand apart in the source and are kept apart here. Bridge positions count the residues as written; N and C are the ends. Ends that are not written are not given here. Peptide text beside a SMILES is read from it.
Key:
[1] = test system: P. aeruginosa MDR 522/17; type: cell-based, Pseudomonas aeruginosa; details: MDR 522/17, 24 h
Procedure: (§1) Quantification of the biofilms forming in the presence of various concentrations of tested AMPs was performed using the crystal violet assay according to general guidelines ([Merritt et al., 2006]). Tests were performed in polystyrene 96-well plates with U-shaped bottom. Peptides were serially diluted in a bacterial growth medium (MH for A. baumannii or TSB for P. aeruguinosa) in a volume of 50 μl per well. Overnight cultures of tested bacteria in a stationary phase of growth were 50 times diluted and introduced into the experimental wells at the same volume of 50 μl. Samples were incubated for 24 h at 37°C. The content of the wells was then shacked out, the plates were gently washed from unattached planktonic bacteria in still water (poured into a large enough vessel); bacterial cells and matrix components adhered to the walls of the wells were stained with a 0.1% aqueous solution of crystal violet dye: 125 μl of dye solution was put into each well and incubated at room temperature for 10 min. After staining dye solution was removed, the plates were washed with clean water and allowed to air-dry. Finally, the bound dye was redissolved by adding 200 μl of 30% acetic acid into each well, incubating it for 15 min at room temperature, and then thoroughly mixing the content of the wells by pipetting. One hundred and twenty five microliters of crystal violet extract from each well were transferred into a flat-bottomed microtiter plate, and the optical density was measured at a wavelength of 560–595 nm (depending on the maximum of absorption in a particular experiment). Experimental samples were made in quadruplicates, and there were 8–9 repeats of control samples without peptides in each test. Presented results are medians calculated based on 3 independent experiments.

[2] = test system: E. coli ML-35p; experiment: Broth microdilution assay (MIC); type: cell-based, Escherichia coli; details: 50% MH broth/50% 10 mM Na-P buffer pH 7.4 with 0.1% BSA, 1×10^6 CFU/ml, 20 h, median of 3–6 independent experiments in triplicate
Procedure: (§2) The minimal inhibitory concentrations (MIC) of peptides were determined using microdilution assay in Müller–Hinton (MH) broth in general accordance with the guidelines of the European Committee for Antimicrobial Susceptibility Testing. Test plates were additionally pretreated with 0.1% bovine serum albumin (BSA) in distilled H2O (incubated for 1 h at 37°C) to reduce possible non-specific binding of peptides to the plastic surface of the wells, as proposed for AMP activity measuring ([Tossi et al., 1997]; [Wiegand et al., 2008]). Two-fold serial dilutions of peptides starting with 2 × stock concentration were prepared in sterile 10 mM sodium phosphate (Na-P) buffer, pH 7.4, with 0.1% BSA. Thus, final solutions contained 50% of Na-P diluted peptide and 50% of MH broth with bacteria. Bacteria for testing were grown overnight, then transferred into a fresh portion of 2.1% MH medium and additionally incubated for 2–3 h to obtain bacterial culture in its mid-logarithmic growth phase, which was diluted down to the final concentration of 1 × 10^6 CFU/ml. Concentration of bacteria in growth medium was calculated based on its absorbance at 620 nm.
After 20 h of incubation of AMPs with bacteria MICs were determined as lowest concentrations of AMPs completely preventing the visible growth of bacteria. Tests were performed in 60-well Terasaki microplates (10 µl end volume, V-shaped bottom; Sarstedt, Germany); dilutions in each test were made in triplicate. Final MIC values were calculated as medians based on the results of 3–5 independent experiments.

[3] = MTT test; type: cell-based; details: human, serum-free RPMI-1640, overnight incubation, mean ± SD of three independent tests, read-out: IC50 of cytotoxic action toward human PBMC
Procedure: Cytotoxic activity of peptides toward various types of eukaryotic cells was assessed using the standard MTT [3-(4,5-Dimethylthiazol-2-yl)-2,5-diphenyltetrazolium bromide] test ([Mosmann, 1983]). Human peripheral blood mononuclear cells (PBMC) were isolated from the peripheral blood of healthy donors. Whole heparinized blood diluted 3-fold with sterile PBS was carefully layered upon the 5 ml of the sterile Ficoll-400 (Pharmacia, Sweden) with a density of 1.077 in a sterile 50 ml conical tube and then centrifuged at 600 g and 4°C for 40 min. The mononuclear “ring” remaining above the Ficoll was collected using a transfer pipette and placed in another tube. Cells were washed twice with sterile PBS, resuspended in RPMI-1640 culture medium and immediately used for the test. Tumor cell lines were purchased from Biolot (Saint Petersburg, Russia) and cultured at 37°C and 5% CO2 in RPMI-1640 medium (Biolot, Saint Petersburg, Russia) supplemented with 10% fetal bovine serum, glutamine, and penicillin-streptomycin combination. For the experiments, cells were washed from the medium they were growing in and resuspended in serum- and antibiotic-free RPMI-1640. Cells were added at not less than 2 × 10^4 per well in sterile flat bottom 96-well microplates containing serial dilutions of tested peptides in RPMI-1640. For the positive control (100% viable cells), RPMI-1640 medium was used instead of the peptide solution, whereas for the negative control (0% viable cells) medium replaced both peptide and cells. Test plates were incubated at 37°C and 5% CO2 overnight, after which MTT metabolic marker in PBS (5 mg/ml) was introduced into each well. After an additional 4 h incubation, the reaction was stopped by adding isopropanol supplemented with 0.04 M HCl, in which the formazan crystals (formed as a result of MTT reduction in presence of metabolically active cells) were dissolved, and OD at 540 nm was measured. Background absorbance at 690 nm was subtracted from the results to countervail any unspecific OD fluctuations. The % of surviving cells was found as:
(2) Survival(%)=(ODsample−OD0% viable)/(OD100% viable−OD0% viable)×100%,
(§3) where ODsample, OD0% viable, and OD100% viable are respectively values of the OD at 540 nm minus the OD at 690 nm for the test sample and negative or positive controls. IC50 toxicity values were determined by nonlinear regression analysis of the dose response curves using Sigma Plot 11 (Systat Software Inc., USA). The experiments were repeated three times, with 3 parallels of samples and 4–6 parallels of controls each time.

[4] = test system: U937; experiment: MTT test; type: cell-based, human; details: serum-free RPMI-1640, overnight incubation, mean ± SD of three independent tests, read-out: IC50 of cytotoxic action toward U937
Procedure: Cytotoxic activity of peptides toward various types of eukaryotic cells was assessed using the standard MTT [3-(4,5-Dimethylthiazol-2-yl)-2,5-diphenyltetrazolium bromide] test ([Mosmann, 1983]). Human peripheral blood mononuclear cells (PBMC) were isolated from the peripheral blood of healthy donors. Whole heparinized blood diluted 3-fold with sterile PBS was carefully layered upon the 5 ml of the sterile Ficoll-400 (Pharmacia, Sweden) with a density of 1.077 in a sterile 50 ml conical tube and then centrifuged at 600 g and 4°C for 40 min. The mononuclear “ring” remaining above the Ficoll was collected using a transfer pipette and placed in another tube. Cells were washed twice with sterile PBS, resuspended in RPMI-1640 culture medium and immediately used for the test. Tumor cell lines were purchased from Biolot (Saint Petersburg, Russia) and cultured at 37°C and 5% CO2 in RPMI-1640 medium (Biolot, Saint Petersburg, Russia) supplemented with 10% fetal bovine serum, glutamine, and penicillin-streptomycin combination. For the experiments, cells were washed from the medium they were growing in and resuspended in serum- and antibiotic-free RPMI-1640. Cells were added at not less than 2 × 10^4 per well in sterile flat bottom 96-well microplates containing serial dilutions of tested peptides in RPMI-1640. […] After an additional 4 h incubation, the reaction was stopped by adding isopropanol supplemented with 0.04 M HCl, in which the formazan crystals (formed as a result of MTT reduction in presence of metabolically active cells) were dissolved, and OD at 540 nm was measured. Background absorbance at 690 nm was subtracted from the results to countervail any unspecific OD fluctuations. […]
as §3, with “The experiments were repeated three times, with 3 parallels of samples and 4–6 parallels of controls each time.” left out

[5] = test system: A. baumannii 7226/16; type: cell-based, Acinetobacter baumannii; details: 7226/16, 24 h
Procedure: as §1, with “After staining dye solution was removed, the plates were washed with clean water and allowed to air-dry. Finally, the bound dye was redissolved by adding 200 μl of 30% acetic acid into each well, incubating it for 15 min at room temperature, and then thoroughly mixing the content of the wells by pipetting.” left out, “Experimental samples were made in quadruplicates, and there were 8–9 repeats of control samples without peptides in each test.” left out

[6] = test system: human erythrocytes; details: cited from earlier work
Source text: The majority of AMPs are membranolytic, and even though eukaryotic cell membranes are less anionic than those of bacterial cells, have a lower membrane potential and are protected by the presence of cholesterol ([Matsuzaki, 2009]), they are considered to be a secondary target, affecting the selectivity of AMPs. […] The hemolysis assay is widely utilized for the express analysis of the toxic properties of AMPs, relating to their membranolytic activity. It was previously shown that na ...

[7] = test system: Gram-positive and Gram-negative bacteria; experiment: Geometric mean of MICs (GMIC) over tested strains; type: cell-based; details: geometric mean of MICs against all tested bacteria
Procedure: as §2
After 20 h of incubation of AMPs with bacteria MICs were determined as lowest concentrations of AMPs completely preventing the visible growth of bacteria. […] Final MIC values were calculated as medians based on the results of 3–5 independent experiments.

[8] = test system: K562 cells; experiment: Trypan blue dye exclusion assay; type: cell-based, human; details: K562, 1×10^6 cells/ml, serum-free RPMI-1640, first 3 h of incubation
Procedure: Living cells exclude the dye, so that their cytoplasm remains clear. When damaged cells take up the dye, it binds to intracellular proteins and renders them a blue color. Cells suspended to a concentration of 1 × 10^6 per ml in RPMI-1640 medium (serum-free) were incubated with various concentrations of the peptides of interest for various periods of time at 37°C and 5% CO2. Then they were stained with 0.2% trypan blue dye solution in PBS for 3 min at room temperature, and dead and living cells were counted using a hemocytometer. Percentage of viable cells was calculated as follows:
(3) Viable cells (%) =total number of viable cells/total number of cells×100%,
Experiments were repeated three times before plotting time-killing curves. For each time point, data are presented as mean with standard deviation (SD).

[9] = test system: K562 cells; experiment: Annexin V-Cy3 apoptosis detection assay; type: cell-based, human; details: K562, 2 h incubation with peptide, Annexin-Cy3.18/6-CFDA staining
Source text: Annexin V-Cy3 Apoptosis Detection kit (Sigma, USA) was used to distinguish between cells dying via necrosis and cells entering apoptosis. This kit includes a combination of red and green fluorescent dyes; 6-Carboxyfluorescein diacetate (6-CFDA) is hydrolyzed by esterases inside viable (still functional) cells, producing the green fluorescent compound 6-carboxyfluorescein. Annexin-Cy3.18, giving red fluorescence, binds to phosphatidylserine which only becomes exposed in the outer leaflet of the plasma membrane for cells entering the apoptotic process, or if the plasma membrane is damaged during necrosis. Thus, living cells are only stained green, necrotic ones are only stained red, while cells in the early stages of apoptosis are stained by both dyes.
To assess the effects of the peptides, cells were incubated in their presence for 2 h under the same conditions as described for trypan blue assay. […] After 10 min incubation at room temperature cells were washed from excess dyes with 1 × binding buffer and analyzed under the luminescent microscope (Leica DM2500, Leica Microsystems, Germany). […] The resulting percentage of viable, apoptotic, and necrotic cells are shown as mean with SD, calculated based on three independent experiments.

[10] = Standard acute toxicity test; type: in vivo; details: at the utilized doses (1 or 100 μg per animal); data not shown

| Compound | MIC [2] | IC50 [3] | other results |
| --- | --- | --- | --- |
| RFRRFRLPFRRIHPPPFVRIHPPPFYRRFL-NH2 [RFR-ChBac3.4-1-NH2] | 4 µM | 18.3 ± 4.1 µM | Biofilm inhibition [1]: 62 ± 1.5% |
| RFRLPFRRPPIRIHPPPFY-NH2 [ChBac3.4(1-19)-NH2] | 4 µM | > 64 µM | IC50 [4]: > 64 µM |
| RFRLPFRRPPIRIHPPPFYPPFRRFL [ChBac3.4-COOH] | 2 µM | 36.2 ± 6.9 µM | – |
| RFRRFRLPFRRPPIRIH-NH2 [RFR-ChBac3.4 (1-14)-NH2] | 1 µM | > 64 µM | Biofilm inhibition [1]: 79 ± 5%; IC50 [4]: > 64 µM; Biofilm inhibition [5]; 2: 53 ± 3% |
| RFRLPFRRPWPIRIHPPPFYPWPFRRFL [ChBac3.4-2-COOH] | 4 µM | 20.2 ± 4.5 µM | – |
| RFRLPFRRPPIRIHPPPFYPPFRRFL-NH2 [ChBac3.4-NH2] | 2 µM | 18.6 ± 0.8 µM | Biofilm inhibition [1]: 63 ± 9%; Hemolytic activity [6]: not hemolytic; Biofilm inhibition [5]: 56 ± 12% |
| RFRLPFRRPPIRIH-NH2 [ChBac3.4(1-14)-NH2] | 8 µM | > 64 µM | IC50 [4]: > 64 µM |
| RFRLPFRRPPIRIPPPFYPPFRRFL-NH2 [ChBac3.4(Н-)] | 4 µM | 34.7 ± 7.3 µM | – |
| CC[C@H](C)[C@H](NC(=O)[C@H](CCCNC(=N)N)NC(=O)[C@@H](NC(=O)[C@H](Cc1ccccc1)NC(=O)[C@@H]1CCCN1C(=O)[C@@H]1CCCN1C(=O)[C@@H]1CCCN1C(=O)[C@H](Cc1c[nH]cn1)NC(=O)[C@@H](NC(=O)[C@H](CCCNC(=N)N)NC(=O)[C@H](CCCNC(=N)N)NC(=O)[C@H](Cc1ccccc1)NC(=O)[C@@H]1CCCN1C(=O)[C@H](CC(C)C)NC(=O)[C@H](CCCNC(=N)N)NC(=O)[C@H](Cc1ccccc1)NC(=O)[C@@H](N)CCCNC(=N)N)[C@@H](C)CC)C(C)C)C(=O)N[C@@H](Cc1c[nH]cn1)C(=O)N1CCC[C@H]1C(=O)N1CCC[C@H]1C(=O)N1CCC[C@H]1C(=O)N[C@@H](Cc1ccccc1)C(=O)N[C@@H](Cc1ccc(O)cc1)C(=O)N[C@@H](CCCNC(=N)N)C(=O)N[C@@H](CCCNC(=N)N)C(=O)N[C@@H](Cc1ccccc1)C(=O)N[C@@H](CC(C)C)C(=O)O [ChBac3.4-1-COOH (rec)] (H-RFRLPFRRIHPPPFVRIHPPPFYRRFL-OH; N-terminus assumed) | 4 µM (≈ 14.1 µg/mL) | 40.8 ± 9.1 µM | GMIC total [7]: 5.0 µM |
| RIHPPPFYPPFRRFL-NH2 [ChBac3.4 (12-26)] | 64 µM | 43.3 ± 7.7 µM | – |
| protegrin 1 (RGGRLCYCRRRFCVCVGR-NH2; disulfide 8-13, 6-15; ends not checked; UniProt P32194 131-148, looked up) [PG-1] | – | – | Dynamics of cytocidal action [8]: swift and pronounced effect, observable in the first 30 min of exposure; Apoptosis versus necrosis [9]: prominent, dose-dependent prevalence of necrosis over apoptosis |
| RFRLPFRRIHPPPFVRIHPPPFYRRFL [ChBac3.4-1-COOH] | 2 to 4 µM | – | Toxic action in acute toxicity test [10]: no visible signs of toxic action |
| RFRLPFRRIHPPPFVRIHPPPFYRRFL-NH2 [ChBac3.4-1-NH2] | 4 µM | 12.1 ± 0.8 µM | – |

Reference: paper PMC7604311, “Caprine Bactenecins as Promising Tools for Developing New Antimicrobial and Antitumor Drugs” (Frontiers in Cellular and Infection Microbiology, 2020)
